According to patent publication US20110237538A1, “TREATMENT OF LYSOSOMAL STORAGE DISORDERS AND OTHER PROTEOSTATIC DISEASES” (SUMMIT CORPORATION PLC, priority 2008, published 2011):

molecular target: T1, wild type (wt) beta-glucocerebrosidase (Homo sapiens, UniProt P04062); assay: beta-glucocerebrosidase activity assay in HL60 lysate (4MU-β-D-glc); type: biochemical; details: at a concentration of 100 μM, 0.5 mM 4MU-β-D-glc;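 note: fluorometric read-out of 4MU liberated from the substrate (ex 360 nm, em 450 nm) after 37 °C incubation, reaction stopped with sodium carbonate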
T1 construct: The lysates were used as a source for wild type (wt) beta-glucocerebrosidase; endogenous in cells; host or cells: HL60 (ECACC No. 98070106) lysate
T1 sequence (P04062 40-536): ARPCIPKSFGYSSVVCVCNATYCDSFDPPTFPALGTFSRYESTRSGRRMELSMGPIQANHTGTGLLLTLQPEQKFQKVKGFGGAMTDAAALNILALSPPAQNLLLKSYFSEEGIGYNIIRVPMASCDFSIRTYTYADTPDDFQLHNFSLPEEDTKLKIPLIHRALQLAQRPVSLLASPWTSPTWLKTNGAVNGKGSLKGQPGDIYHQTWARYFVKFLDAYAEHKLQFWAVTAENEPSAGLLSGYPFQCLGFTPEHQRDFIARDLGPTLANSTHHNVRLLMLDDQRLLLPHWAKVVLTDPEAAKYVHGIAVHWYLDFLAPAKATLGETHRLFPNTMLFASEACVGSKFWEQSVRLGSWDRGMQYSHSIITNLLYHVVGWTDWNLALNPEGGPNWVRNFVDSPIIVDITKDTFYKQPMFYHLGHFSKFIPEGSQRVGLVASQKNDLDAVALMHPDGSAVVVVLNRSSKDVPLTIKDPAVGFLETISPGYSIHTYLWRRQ

Row | Compound | inhibition at 100 µM [%]
1 | OC[C@@H]1[C@@H](O)[C@H](O)[C@@H]2[C@@H](O)CCN21 [Compound 17, (1R,2R,3R,7S,7aS)-3-(hydroxymethyl)hexahydro-1H-pyrrolizine-1,2,7-triol] | > 50
2 | O[C@@H]1[C@@H](O)[C@H](O)[C@]2(O)C[C@@H](O)[C@H]1N2 [Compound 33, (1R,2S,3R,4S,5R,6R)-8-azabicyclo[3.2.1]octane-1,2,3,4,6-pentaol] | > 50
3 | OC1C[C@@]2(O)N[C@@H]1C[C@H](O)[C@H]2O (stereo partly drawn) [Compound 43, (1S,2R,3S,5R)-8-azabicyclo[3.2.1]octane-1,2,3,6-tetraol] | > 50
4 | C[C@@H]1CCC[C@@H]2[C@@H](O)[C@@H](O)[C@@H](CO)N12 [Compound 60, (1R,2S,3R,5R,8aR)-3-(hydroxymethyl)-5-methyloctahydroindolizine-1,2-diol] | > 50
5 | CC(O)CC[C@@H]1[C@@H](O)C[C@@H]2[C@H](O)[C@H](O)[C@@H](CO)N21 (stereo partly drawn) [Compound 66, (1S,2R,3R,5R,6S,7aR)-5-(3-hydroxybutyl)-3-(hydroxymethyl)hexahydro-1H-pyrrolizine-1,2,6-triol] | > 50

molecular target: T2, wild type (wt) lysosomal alpha-glucosidase (Homo sapiens, UniProt P10253); assay: alpha-glucosidase activity assay in HL60 lysate (4MU-α-D-glc); type: biochemical; details: at a concentration of 100 uM, 0.5 mM 4MU-α-D-glc, pH 4.5;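 note: fluorometric rate of 4MU product release read at 360 nm excitation and 450 nm emission, reactions run at 37 °C in citric phosphate buffer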
T2 construct: The lysates were used as a source for wild type (wt) lysosomal alpha-glucosidase; endogenous in cells; host or cells: HL60 (ECACC No. 98070106) lysate

Row | inhibition at 100 µM [%] | Compound
6 | > 50 | CC[C@@H]1N[C@@H](CO)[C@H](O)[C@@H](O)[C@@H]1O [Compound 23, (2S,3R,4S,5S,6S)-2-ethyl-6-(hydroxymethyl)piperidine-3,4,5-triol]
7 | > 50 | C[C@H]1N[C@H](CO)[C@@H](O)[C@H](O)[C@H]1O [Compound 51, (2R,3R,4R,5S,6R)-2-(hydroxymethyl)-6-methylpiperidine-3,4,5-triol]
8 | > 50 | OCC1OC(O[C@H]2[C@H](O)[C@@H](CO)N[C@@H]2CO)C(O)C(O)C1O (stereo partly drawn) [Compound 79, 2-((2R,3R,4R,5R)-4-hydroxy-2,5-bis(hydroxymethyl)pyrrolidin-3-yloxy)-6-(hydroxymethyl)tetrahydro-2H-pyran-3,4,5-triol]
9 | > 50 | C[N+]1(C)C[C@@H](O)[C@H](O)[C@H]1C(=O)[O-] [Compound 80, (2S,3R,4R)-3,4-dihydroxy-1,1-dimethylpyrrolidinium-2-carboxylate]
10 | > 50 | OC[C@H]1NC[C@H](O)[C@@H](O)[C@@H]1O [Compound 193, (2R,3R,4R,5S)-2-(hydroxymethyl)piperidine-3,4,5-triol]
11 | > 50 | OC[C@@H]1NC[C@](O)(CO)[C@H]1O [Compound 202, (2S,3S,4S)-2,4-bis(hydroxymethyl)pyrrolidine-3,4-diol]
12 | > 50 | C[C@H]1NC[C@H](O)[C@@H](O)[C@@H]1O [Compound 388, (2R,3R,4R,5S)-2-methylpiperidine-3,4,5-triol]
13 | > 50 | OC[C@H]1[C@H](O)[C@@H](O)CN1Cc1ccccc1 [Compound 500, (2S,3S,4S)-1-benzyl-2-(hydroxymethyl)pyrrolidine-3,4-diol]
14 | > 50 | CN1[C@H](CO)[C@@H](O)[C@H](O)[C@H]1CO [Compound 515, (2R,3R,4R,5R)-2,5-bis(hydroxymethyl)-1-methylpyrrolidine-3,4-diol]
15 | > 50 | CCCCN1C[C@H](O)[C@H](O)[C@@H]1[C@@H](O)[C@H](O)[C@H](O)CO [Compound 531, (1R,2S,3R)-1-((2R,3R,4S)-1butyl-3,4-dihydroxypyrrolidin-2-yl)butane-1,2,3,4-tetraol]
16 | > 50 | CCCC[C@@H]1N[C@@H](CO)[C@H](O)[C@H]1O [Compound 728, (2S,3S,4S,5S)-2-butyl-5-(hydroxymethyl)pyrrolidine-3,4-diol]
17 | > 50 | OC[C@@H]1N[C@@H](CO)[C@H](O)[C@H]1O [Compound 729, (2S,3S,4S,5S)-2,5-bis(hydroxymethyl)pyrrolidine-3,4-diol]
18 | > 50 | CC[C@@H]1N[C@@H](CO)[C@H](O)[C@H]1O [Compound 732, (2S,3S,4S,5S)-2-ethyl-5-(hydroxymethyl)pyrrolidine-3,4-diol]

Continued, compound first:

Row | Compound | inhibition at 100 µM [%]
19 | OCC1OC(O[C@H]2CN3C[C@H](O)[C@@H](O)[C@H](O)[C@H]3[C@H]2O)C(O)C(O)C1O (stereo partly drawn) [Compound 41, (1R,2S,6S,7R,8R,8aS)-2-(3,4,5-trihydroxy-6-(hydroxymethyl)tetrahydro-2H-pyran-2-yloxy)octahydroindolizine-1,6,7,8-tetraol] | > 50
20 | CCCC(=O)O[C@H]1CN2CC[C@H](O)C2[C@@H](O)[C@@H]1O (stereo partly drawn) [Compound 46, (1S,6S,7S,8R)-1,7,8-trihydroxyoctahydroindolizin-6-yl butyrate] | > 50
21 | OCC1OC(OC[C@H]2NC[C@H](O)[C@@H](O)[C@@H]2O)C(O)C(O)C1O (stereo partly drawn) [Compound 78, (2R,3R,4R,5S)-2-((3,4,5-trihydroxy-6-(hydroxymethyl)tetrahydro-2H-pyran-2-yloxy)methyl)piperidine-3,4,5-triol] | > 50
22 | CCCCN1C[C@H](O)[C@@H](O)[C@H](O)[C@H]1CO [Compound 118, (2R,3R,4R,5S)-1-butyl-2-(hydroxymethyl)piperidine-3,4,5-triol] | > 50
23 | OCC1OC(O[C@H]2CN[C@H](CO)[C@@H](O)[C@@H]2O)C(O)C(O)C1O (stereo partly drawn) [Compound 121, 2-((3S,4S,5R,6R)-4,5-dihydroxy-6-(hydroxymethyl)piperidin-3-yloxy)-6-(hydroxymethyl)tetrahydro-2H-pyran-3,4,5-triol] | > 50
24 | OC[C@@H]1[C@@H](O)[C@H](O)[C@H]2[C@H](O)[C@@H](O)CN21 [Compound 137, (1R,2R,3R,6S,7S,7aR)-3-(hydroxymethyl)hexahydro-1H-pyrrolizine-1,2,6,7-tetraol] | > 50
25 | C[C@@H]1CC[C@@H]2[C@H](O)[C@H](O)[C@@H](CO)N12 [Compound 150, (1S,2R,3R,5R,7aR)-3-(hydroxymethyl)-5-methylhexahydro-1H-pyrrolizine-1,2-diol] | > 50
26 | OC[C@@H](O)[C@@H]1NC[C@](O)(CO)[C@H]1O [Compound 179, (2S,3S,4S)-2-((S)-1,2-dihydroxyethyl)-4-(hydroxymethyl)pyrrolidine-3,4-diol] | > 50
27 | O=C(O)CN1C[C@H](O)[C@@H](O)[C@H](O)[C@H]1CO [Compound 214, 2-((2R,3R,4R,5S)-3,4,5-trihydroxy-2-(hydroxymethyl)piperidin-1-yl)acetic acid] | > 50
28 | OC[C@@H]1NC[C@@H](O)[C@H](O)[C@H]1O [Compound 221, (2S,3S,4S,5R)-2-(hydroxymethyl)piperidine-3,4,5-triol] | > 50
29 | OCCCCN1C[C@H](O)[C@@H](O)[C@H](O)[C@H]1CO [Compound 276, (2R,3R,4R,5S)-1-(4-hydroxybutyl)-2-(hydroxymethyl)piperidine-3,4,5-triol] | > 50
30 | C[C@@H]1N[C@@H](CO)[C@H](O)[C@H]1O [Compound 300, (2S,3S,4S,5S)-2-(hydroxymethyl)-5-methylpyrrolidine-3,4-diol] | > 50
31 | O[C@H]1[C@H](O)[C@@H](O)CN2C[C@H](O)[C@@H](O)[C@H]12 [Compound 352, (1S,2S,6S,7R,8R,8aR)-octahydroindolizine-1,2,6,7,8-pentaol] | > 50
32 | O=C1N[C@H](CO)[C@H](O)[C@@H](O)[C@@H]1O [Compound 446, (3S,4R,5S,6R)-3,4,5-trihydroxy-6-(hydroxymethyl)piperidin-2-one] | > 50
33 | CCCC[C@H]1N[C@H](CO)[C@@H](O)[C@@H](O)[C@@H]1O [Compound 488, (2R,3R,4S,5R,6R)-2-butyl-6-(hydroxymethyl)piperidine-3,4,5-triol] | > 50
34 | C[C@@]1(CO)NC[C@H](O)[C@H]1O [Compound 501, (2S,3S,4S)-2-(hydroxymethyl)-2-methylpyrrolidine-3,4-diol] | > 50
35 | OC[C@@H]1[C@@H](O)[C@H](O)[C@@H](O)CN1CCN1CCOCC1 [Compound 509, (2R,3R,4R,5S)-2-(hydroxymethyl)-1-(2-morpholinoethyl)piperidine-3,4,5-triol] | > 50
36 | OC[C@@H]1[C@@H](O)[C@H](O)[C@@H](O)CN1Cc1ccccc1 [Compound 510, (2R,3R,4R,5S)-1-benzyl-2-(hydroxymethyl)piperidine-3,4,5-triol] | > 50
37 | OC[C@@H]1[C@@H](O)[C@H](O)[C@@H](CO)N1Cc1ccc(-c2ccccc2)cc1 [Compound 558, (2R,3R,4R,5R)-1-(biphenyl-4-ylmethyl)-2,5-bis(hydroxymethyl)pyrrolidine-3,4-diol] | > 50
38 | COCCOCCN1C[C@H](O)[C@@H](O)[C@H](O)[C@H]1CO [Compound 725, (2R,3R,4R,5S)-2-(hydroxymethyl)-1-(2-(2-methoxyethoxy)ethyl)piperidine-3,4,5-triol] | > 50
39 | CCCCN1CCC[C@@H](CO)C1 [Compound 741, (R)-(1-butylpiperidin-3-yl)methanol] | > 50
